Measured values: patent publication US20250346613A1, “BORIC ACID PROTEASOME INHIBITOR AND USE THEREOF” (ARTIVILA BIOPHARMA, priority 2022, published 2025)

Experiments:
Format in all cases: cell-based
MM.1S cell strain = assay: Inhibitory activity of cell strain (CellTiter-Glo); conditions: Homo sapiens, MM1.S, 72 h incubation
In short: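 Cells seeded at 1×10^5 per well in RPMI1640 complete medium for 24 h, then treated 72 h at 37 °C, 5% CO2 with 3-fold dilutions, final 5×10^−7 M down to 2.29×10^−10 M. CellTiter-Glo luminescence; inhibition calculated against DMSO-only cells and medium-only blanks.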

[1] = target: T1, β5c subunit of the 20S proteasome (Homo sapiens, UniProt P20618+P28074); assay: Proteasome inhibitory activity, β5c subunit (Raji cells treated with compound, lysed, Suc-LLVY-AMC substrate); conditions: proteasome from Raji cells incubated with compound 4 h
T1 construct: The proteasome tested in the present disclosure was derived from Raji cells; endogenous in cells; host or cells: Raji cells
In short: (§1)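 Raji cells were treated for 4 h at 37 °C with compound (from 1 μM, 3-fold, 8 concentrations), then lysed. Lysate activity was read 10 min at 37 °C with Ac-ANW-AMC (β5i) or Suc-LLVY-AMC (β5c) at 345/445 nm. Percent inhibition was relative to DMSO-treated lysate.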

[2] = target: T2, β5i subunit of the 20S proteasome (Homo sapiens, UniProt P20618+P28062); assay: Proteasome inhibitory activity, β5i subunit (Raji cells treated with compound, lysed, Ac-ANW-AMC substrate); conditions: proteasome from Raji cells incubated with compound 4 h
T2 construct: The proteasome tested in the present disclosure was derived from Raji cells; endogenous in cells; host or cells: Raji cells
In short: as §1

Row | IC50 (MM.1S cell strain) [nM] | IC50 [1] [nM] | IC50 [2] [nM] | Compound
1 | ≤ 50 | ≤ 50 | ≤ 50 | Cc1ccc(C[C@H](NC(=O)C(C)C(=O)NCc2ccc(Cl)cc2Cl)B(O)O)cc1 (stereo partly drawn) [Example 59, ((1R)-1-(3-((2,4-dichlorobenzyl)amino)-2-methyl-3-oxopropionamido)-2-(p-tolyl)ethyl)boric acid]
2 | ≤ 50 | ≤ 50 | ≤ 50 | COc1cccc(CCNC(=O)C(C)C(=O)N[C@@H](Cc2coc3ccccc23)B(O)O)c1 (stereo partly drawn) [Example 63, ((1R)-2-(benzofuran-3-yl)-1-(3-((3-methoxyphenylethyl)amino)-2-methyl-3-oxopropionamido)ethyl)boric acid]
